Assay results as given in patent US20040043377A1, “Evaluation method for predicting pharmacokinetics of PM using PM liver cells of drug metabolozing enzyme cytochrome P450 having a genetic polymorphism” (Pfizer Inc, priority 2002, published 2004).
Read-outs that look alike come from different tables or passages of the source.

Tests used:
[1] = tested on: isolated PM liver cells of CYP2D6 (Lot 64); test: Dextromethorphan metabolism in cryopreserved isolated PM liver cells of CYP2D6 (Lot 64); format: in vitro ADME, human
Method: (§1) A preliminary test for evaluation metabolic reactions was conducted by selecting dextromethorphan (DM, analgesic agent) as the substrate of CYP2D6. Metabolism of DM in the clinical setting is known to proceed by N-demethylation, O-demethylation followed by glucuronic acid conjugation. CYP3A4 catalyzes the N-demethylation reaction, while CYP2D6 catalyzes the O-demethylation reaction. In PM of […], N-demethylation is known to proceed as a compensatory metabolic pathway of O-demethylation. In the present embodiment, metabolic reactions were examined for dextromethorphan using isolated PM liver cells of CYP2D6, and a discussion was made as to whether or not the pharmacokinetics of PM can be predicted.
(§2) The cryopreserved isolated PM liver cells of PM of CYP2D6 that were used (Lot 64) and the cryopreserved isolated EM liver cells (Lot 70) were prepared at In Vitro Technologies (IVT), USA. Liver cells for which the activity of CYP3A4 was roughly equal to that of Lot 64 of the cryopreserved isolated PM liver cells were selected by referring to data provided by IVT for use as the cryopreserved isolated EM liver cells. The acquired cells consisted of 6×10^6 cells per vial for both lots.
(§3) Krebs Henseleit buffer (adjusted to pH 7.4 following addition of calcium chloride dihydrate (0.373 g/L), sodium bicarbonate (2.1 g/L) and HEPES (1.5 g/L)) was used for the incubation medium. The cryopreserved human isolated liver cells were inoculated into a 96-well plate and used for testing while suspended in culture liquid. Dextromethorphan (DM), which is the substrate of CYP2D6, was added to the wells at final concentrations of 0.08, 0.4, 2, 10 and 50 μM and allowed to react at 37° C. The reaction liquid was sampled after 1 and 2 hours, and the parent compound (DM) along with dextrorphan (DEX: metabolite mainly produced by CYP2D6) and 3-methoxymorphinan (3-MM: metabolite mainly produced by CYP3A4) were respectively assayed. In addition, with respect to assay of the conjugate (glucuronide), DEX obtained by hydrolysis following the addition of β-glucuronidase/allylsulfatase to the sampled reaction liquid was assayed, and the difference with DEX prior to hydrolysis was taken to be the amount of the conjugate. LC/MS/MS were used for analyzing the unchanged form and metabolites in the culture liquid.
Furthermore, LC/MS/MS were carried out under the measurement conditions described below. HPLC: Waters 2790, MS: API365 Sciex, column: YMC J′ sphere ODS L80 2×35 mm, gradient: mobile phase A [CH3CN:10 mM CH3CO2NH4 aqueous solution=10:90], mobile phase B [CH3CN:10 mM CH3CO2NH4 aqueous solution=80:20], conditions [mobile phase flow rate 0.35 ml/minute, composition of mobile phase changed from A:B=100:0 to A:B=0:100 1 minute after sample injection, followed by allowing composition of A:B=0:100 to flow for 1 minute], MS/MS detection: DM=272.3/170.9, DEX=258.2/157.1, 3-MM=258.2/215.0, MDZ=326.1/291.1, 4-OH MDZ=342.1/324.1.

CYP2D6 = CYP2D6 (Homo sapiens, UniProt P10635); details: cited from earlier work
[2] = tested on: isolated EM liver cells (Lot 70); test: Dextromethorphan metabolism in cryopreserved isolated EM liver cells (Lot 70); format: in vitro ADME, human
Method: as §1, §2
as §3, with “In addition, with respect to assay of the conjugate (glucuronide), DEX obtained by hydrolysis following the addition of β-glucuronidase/allylsulfatase to the sampled reaction liquid was assayed, and the difference with DEX prior to hydrolysis was taken to be the amount of the conjugate. LC/MS/MS were used for analyzing the unchanged form and metabolites in the culture liquid.” left out

[3] = clinical dose level (about 20 mg/body); cited from earlier work
PM liver microsomes = test: Metabolite formation in PM liver microsomes (Lot. No. HHM-0168); format: in vitro ADME, human
Method: Incubation reactions from the determination of the enzymatic kinetic parameters were carried out at a protein concentration of 0.2 mg/ml in 100 mM potassium phosphate, pH 7.4 containing 1.3 mM NADP^+, 0.93 mM NADH, 3.3 mM glucose-6-phosphate, 8 units/ml G-6-PDH, 3.3 mM MgCl2, and substrates. Reactions were initiated by the addition of NADP^+/NADH, and then terminated after 10 min incubation at 37° C. by the addition of ten-fold volume of acetonitrile containing an LC/MS/MS internal standard (Levallorphan at 100 ng/ml final conc.). The mixtures were centrifuged for 10 min, and supernatants were used for LC/MS/MS analyses to determine the production rates of metabolites.

Sequence of CYP2D6 (P10635 whole entry): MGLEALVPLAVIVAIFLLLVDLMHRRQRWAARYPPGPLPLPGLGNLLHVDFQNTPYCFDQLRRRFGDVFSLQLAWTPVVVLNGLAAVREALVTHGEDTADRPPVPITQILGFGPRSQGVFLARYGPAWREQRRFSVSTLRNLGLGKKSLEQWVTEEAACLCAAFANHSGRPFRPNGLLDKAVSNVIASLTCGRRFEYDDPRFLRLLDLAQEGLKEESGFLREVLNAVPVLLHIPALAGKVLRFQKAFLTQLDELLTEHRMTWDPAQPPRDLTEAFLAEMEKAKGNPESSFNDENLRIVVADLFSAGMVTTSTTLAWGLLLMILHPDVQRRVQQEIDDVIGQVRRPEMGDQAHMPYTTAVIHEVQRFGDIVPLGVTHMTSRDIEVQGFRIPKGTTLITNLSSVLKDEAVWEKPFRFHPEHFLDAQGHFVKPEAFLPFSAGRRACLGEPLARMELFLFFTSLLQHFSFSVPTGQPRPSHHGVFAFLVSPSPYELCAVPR

COc1ccc2c(c1)[C@]13CCCC[C@@H]1[C@H](C2)N(C)CC3 [DM, dextromethorphan]
DEX formation [1]: not detected
3-MM formation rate versus EM liver cells ([1]; CYP2D6 PM liver cells): greater than that in EM liver cells
differences in 3-MM/1'OH-MDZ formation rate between PM and EM liver cells (hepatocytes) ([1]; FIG. 5): large
formation rate of 3-MM relative to DEX formation rate ([1]; PM liver cells): comparable to the DEX formation rates
DEX formation ([1]; PM liver cells, DM 10 μM and 50 μM): formation of DEX was observed
DEX formation ([1]; PM, in the vicinity of concentration of DM in the blood (up to 1 μM)): only slight formation of DEX
glucuronic acid conjugation reaction (DEX-glucuronide formation) ([1]; isolated PM liver cells lot 64): clearly determined to proceed
Km (CYP2D6): ~2 µM
formation rate of 3-MM relative to DEX formation rate ([2]; EM liver cells): less than one-tenth
formation rate of metabolite DEX ([2]; EM liver cells, DM 0.08-50 μM): increased concentration-dependently
glucuronic acid conjugation reaction (DEX-glucuronide formation) ([2]; isolated EM liver cells lot 70): clearly determined to proceed
concentration of DM in the blood [3]: up to 1 μM
differences in 3-MM/1'OH-MDZ formation rate between PM and EM liver microsomes (PM liver microsomes; FIG. 6): not statically significance
compensatory metabolic pathway (PM liver microsomes; PM microsomes): did not proceed
